In patent US20140121220A1, “CRYSTALS OF PHENYLPYRROLE DERIVATIVE” (Daiichi Sankyo Company, Limited, priority 2011, published 2014):
Values after ≈ are worked out from the molar mass of the structure shown. Where two headings read alike, the source gives them in different places.

Experiments:
[1] = Solubility test (Test Example 4); format: physicochemical; conditions: 4 mg in 2 mL; for solubility at 30 min: 37 °C, thermodynamic from solid, read-out: Concentration (solubility); for Concentration (solubility): 37° C., 30 minutes
Protocol: The Form I crystal (4 mg), the Form II crystal (4 mg) and Compound II (4 mg) were respectively dissolved in 2 mL of water, Japanese Pharmacopoeia Elution Test Solution 1 (JP1), Japanese Pharmacopoeia Elution Test Solution 2 (JP2), Fasted State Simulated Intestinal Fluid (FaSSIF) and Fed State Simulated Intestinal Fluid (FeSSIF). After stirring vigorously for 30 seconds every 5 minutes in a constant temperature water bath at 37° C., a portion of the supernatant was sampled 30 minutes later and filtered with a syringe filter. The filtrate was suitably diluted for use as the sample solution.
The sample solution was measured using HPLC under the following conditions.
HPLC system: Waters Alliance
Column: Waters, XBridge C18 3.5 μm
Column temperature: 40° C.
Solvent A: 5 mM aqueous ammonium hydrogencarbonate solution
The gradient program is as indicated below.

[2] = test system: spontaneously diabetic rats (ZDF-Lepr^fa/CrlCrlj); assay: Blood glucose lowering activity test (Test Example 6); format: in vivo, rat; conditions: for Area under blood glucose curve: 0 to 6 hours after oral administration, fasting, Form I crystal 10 mg/kg, Compound II 8.3 mg/kg (equivalent as free form), average of five
Protocol: Male, 9-week-old, spontaneously diabetic rats (ZDF-Lepr^fa/CrlCrlj) were used.
A crystal of the compound of the present invention in the form of the Form I crystal at 10 mg/kg or the free form thereof in the form of Compound II at 8.3 mg/kg (calculated based on the free form, corresponding to the equivalent of 10 mg/kg of the Form I crystal) was respectively suspended in a 20% aqueous HP-β-cyclodextrin solution (hereinafter referred to as “vehicle”) and orally administered under fasting conditions.
Blood glucose levels were measured in accordance with ordinary methods before administration of the compounds (at 0 hour) and at 0.5, 1, 2, 4 and 6 hours after administration. Namely, the tips of the rat tails (about 1 mm) were severed and blood collected with hematocrit tubes subjected to anticoagulation treatment with heparin were centrifuged followed by measuring the resulting plasma with the Glucoroder F (A&T Corporation). The areas under blood glucose curves from 0 to 6 hours after administration were calculated using the resulting blood glucose values.
The results of a blood glucose lowering activity test on each group administered with the Form I crystal, Compound II or vehicle only were as shown in Table 8.
Furthermore, the values shown in Table 8 are all the average values of test result values obtained using five spontaneously diabetic rats (ZDF-Lepr^fa/CrlCrlj).

[3] = Hygroscopicity test (Test Example 3); format: physicochemical; conditions: 25° C., 10 to 90% RH
Protocol: The sample was weighed in a glass sample cup, and weight was measured under the conditions indicated below.
Measuring instrument: SGA-100 (VTI Corp.)
Measuring temperature: 25° C.
Minimum exposure time: 15 min
Maximum exposure time: 120 min
Step transition condition: within 0.03 wt %
The appearance of the sample was observed following completion of measurement.

[4] = Evaluation of in vivo absorption
[5] = Fed State Simulated Intestinal Fluid (FeSSIF)
[6] = Japanese Pharmacopoeia Elution Test Solution 2 (JP2)
[7] = Fasted State Simulated Intestinal Fluid (FaSSIF)
[8] = Japanese Pharmacopoeia Elution Test Solution 1 (JP1)

SMILES | solubility at 30 min ([1]; Fasted State Simulated Intestinal Fluid (FaSSIF), fassif, Fasted State Simulated Intestinal Fluid (FaSSIF)) [µg/mL] | Concentration (solubility) [1, 5] [µg/mL] | solubility at 30 min ([1]; Japanese Pharmacopoeia Elution Test Solution 1 (JP1), pH 1.2, simulated gastric fluid, Japanese Pharmacopoeia Elution Test Solution 1 (JP1)) [µg/mL] | Concentration (solubility) [1, 6] [µg/mL] | Concentration (solubility) ([1]; Water) [µg/mL] | Area under blood glucose curve [2] [mg/dl × hr] | Concentration (solubility) [1, 7] [µg/mL] | Concentration (solubility) [1, 8] [µg/mL] | Hygroscopicity (moisture sorption-desorption behavior) [3] | Blood glucose lowering activity compared with Compound II ([2]; oral, 10 mg/kg Form I crystal vs 8.3 mg/kg Compound II) | Blood concentrations in comparison with Compound II [4]
C[C@H]1CN=C(c2ccc(-c3cc(Oc4cnc(S(C)(=O)=O)cn4)cc(O[C@@H](C)CO)c3)[nH]2)O1 [Compound II, (2S)-2-(3-{5-[(5S)-5-Methyl-4,5-dihydro-1,3-oxazol-2-yl]-1H-pyrrol-2-yl}-5-{[5-(methylsulfonyl)pyrazin-2-yl]oxy}phenoxy)propan-1-ol, reference compound] | 12 (≈ 25.4 µM) | 222 | > 1500 | 5.87 | 5.59 | 661.8 ± 26.9 | – | – | – | – | –
C[C@H]1CN=C(c2ccc(-c3cc(Oc4cnc(S(C)(=O)=O)cn4)cc(O[C@@H](C)CO)c3)[nH]2)O1 [Form I crystal, (2S)-2-(3-{5-[(5S)-5-Methyl-4,5-dihydro-1,3-oxazol-2-yl]-1H-pyrrol-2-yl}-5-{[5-(methylsulfonyl)pyrazin-2-yl]oxy}phenoxy)propan-1-ol monomethanesulfonate] | – | 1145 | – | 11.8 | >1500 | 529.0 ± 24.5 | 20.4 | >1500 | did not demonstrate hygroscopicity | superior to that of the free form | high blood concentrations in comparison with Compound II
C[C@H]1CN=C(c2ccc(-c3cc(Oc4cnc(S(C)(=O)=O)cn4)cc(O[C@@H](C)CO)c3)[nH]2)O1 [Form II crystal, (2S)-2-(3-{5-[(5S)-5-Methyl-4,5-dihydro-1,3-oxazol-2-yl]-1H-pyrrol-2-yl}-5-{[5-(methylsulfonyl)pyrazin-2-yl]oxy}phenoxy)propan-1-ol monomethanesulfonate] | – | 1381 | – | 14.1 | >1500 | – | 20.5 | >1500 | did not demonstrate hygroscopicity | – | high blood concentrations in comparison with Compound II
